Experimental data as given in ChEMBL document CHEMBL4673240, “Euphnerins A and B, Diterpenoids with a 5/6/6 Rearranged Spirocyclic Carbon Skeleton from the Stems of Euphorbia neriifolia” (J Nat Prod, 2020).

Test: Inhibition of LPS-induced NO production in mouse BV-2 cells
Format: functional, cell-based

IC50	Compound
22.4 µM	C=C[C@@]1(C)CC[C@]2(C)C(=O)[C@@]3(CC[C@H]2C1)[C@H](O)C[C@@H](O)C3(C)C
2 µM	CSC(=N)N
> 30 µM	C=C[C@@]1(C)CC[C@]2(C)C(=O)[C@@]3(CC[C@H]2C1)[C@H](O)CCC3(C)C
